Data as given in BindingDB's records for patent US11547697 (Millennium Pharmaceuticals, 2023).

How the values were obtained:
Assay in all cases: Inhibition Assay of PI3K
[1] = biological target: T1, Phosphatidylinositol 4,5-bisphosphate 3-kinase catalytic subunit delta isoform (Homo sapiens, UniProt O00329)
T1 sequence (O00329 whole entry): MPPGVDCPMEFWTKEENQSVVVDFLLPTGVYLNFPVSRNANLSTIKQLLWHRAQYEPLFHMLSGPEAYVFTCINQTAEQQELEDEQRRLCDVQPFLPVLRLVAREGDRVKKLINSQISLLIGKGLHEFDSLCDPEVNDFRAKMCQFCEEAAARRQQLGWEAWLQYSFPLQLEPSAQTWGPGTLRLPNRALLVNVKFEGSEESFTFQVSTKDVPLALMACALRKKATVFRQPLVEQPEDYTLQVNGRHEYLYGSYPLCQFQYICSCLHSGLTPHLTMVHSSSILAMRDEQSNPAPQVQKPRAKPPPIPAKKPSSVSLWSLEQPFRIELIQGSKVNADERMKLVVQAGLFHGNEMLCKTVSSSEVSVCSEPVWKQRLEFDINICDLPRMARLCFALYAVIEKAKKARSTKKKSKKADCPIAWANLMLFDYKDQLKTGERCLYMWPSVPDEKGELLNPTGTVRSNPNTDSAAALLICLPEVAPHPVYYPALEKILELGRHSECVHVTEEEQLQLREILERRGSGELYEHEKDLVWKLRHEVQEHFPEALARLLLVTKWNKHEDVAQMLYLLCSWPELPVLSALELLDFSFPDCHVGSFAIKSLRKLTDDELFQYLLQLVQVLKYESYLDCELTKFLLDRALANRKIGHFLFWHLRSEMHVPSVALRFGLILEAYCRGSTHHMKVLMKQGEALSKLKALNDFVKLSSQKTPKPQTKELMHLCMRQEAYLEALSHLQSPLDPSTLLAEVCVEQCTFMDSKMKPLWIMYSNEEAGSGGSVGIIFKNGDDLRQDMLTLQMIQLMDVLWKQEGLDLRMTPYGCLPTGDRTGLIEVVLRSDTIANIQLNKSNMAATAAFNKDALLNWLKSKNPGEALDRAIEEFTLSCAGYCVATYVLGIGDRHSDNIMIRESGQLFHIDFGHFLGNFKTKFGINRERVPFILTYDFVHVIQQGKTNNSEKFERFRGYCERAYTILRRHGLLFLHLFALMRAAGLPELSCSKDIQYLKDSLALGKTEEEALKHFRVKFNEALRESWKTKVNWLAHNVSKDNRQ

[2] = biological target: Phosphatidylinositol 4,5-bisphosphate 3-kinase catalytic subunit alpha isoform (Homo sapiens, UniProt P42336)
[3] = biological target: Phosphatidylinositol 4,5-bisphosphate 3-kinase catalytic subunit gamma isoform (Homo sapiens, UniProt P48736)
[4] = biological target: Phosphatidylinositol 4,5-bisphosphate 3-kinase catalytic subunit beta isoform (Homo sapiens, UniProt P42338)
Chain of Phosphatidylinositol 4,5-bisphosphate 3-kinase catalytic subunit beta isoform (P42338 whole entry, canonical isoform): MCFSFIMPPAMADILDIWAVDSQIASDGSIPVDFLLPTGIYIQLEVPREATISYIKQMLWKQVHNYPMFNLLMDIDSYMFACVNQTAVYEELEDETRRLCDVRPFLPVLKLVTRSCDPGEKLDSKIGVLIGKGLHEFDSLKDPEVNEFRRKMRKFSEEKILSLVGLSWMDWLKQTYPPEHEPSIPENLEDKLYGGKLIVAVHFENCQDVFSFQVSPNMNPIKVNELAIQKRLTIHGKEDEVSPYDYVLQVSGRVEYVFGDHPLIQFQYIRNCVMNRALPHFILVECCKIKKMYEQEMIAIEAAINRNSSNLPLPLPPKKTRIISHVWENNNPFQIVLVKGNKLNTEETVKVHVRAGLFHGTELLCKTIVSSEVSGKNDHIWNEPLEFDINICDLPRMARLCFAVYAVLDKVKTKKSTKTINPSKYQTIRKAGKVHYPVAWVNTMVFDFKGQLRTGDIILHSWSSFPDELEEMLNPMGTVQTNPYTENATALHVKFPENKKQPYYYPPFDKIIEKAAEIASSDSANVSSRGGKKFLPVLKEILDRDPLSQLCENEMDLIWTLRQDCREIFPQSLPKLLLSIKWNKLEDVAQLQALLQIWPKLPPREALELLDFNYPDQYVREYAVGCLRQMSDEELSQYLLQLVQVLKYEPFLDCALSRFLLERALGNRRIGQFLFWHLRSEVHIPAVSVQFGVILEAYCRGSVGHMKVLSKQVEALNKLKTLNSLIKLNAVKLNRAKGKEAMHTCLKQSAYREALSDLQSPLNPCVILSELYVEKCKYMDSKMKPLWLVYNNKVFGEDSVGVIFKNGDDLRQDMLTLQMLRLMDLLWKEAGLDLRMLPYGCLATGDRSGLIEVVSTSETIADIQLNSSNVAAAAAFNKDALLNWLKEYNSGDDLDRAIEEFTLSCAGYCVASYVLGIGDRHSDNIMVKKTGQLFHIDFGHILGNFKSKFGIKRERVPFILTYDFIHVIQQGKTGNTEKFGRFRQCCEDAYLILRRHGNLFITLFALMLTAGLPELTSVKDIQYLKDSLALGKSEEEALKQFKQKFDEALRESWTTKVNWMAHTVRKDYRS

Chain of Phosphatidylinositol 4,5-bisphosphate 3-kinase catalytic subunit gamma isoform (P48736 whole entry, canonical isoform): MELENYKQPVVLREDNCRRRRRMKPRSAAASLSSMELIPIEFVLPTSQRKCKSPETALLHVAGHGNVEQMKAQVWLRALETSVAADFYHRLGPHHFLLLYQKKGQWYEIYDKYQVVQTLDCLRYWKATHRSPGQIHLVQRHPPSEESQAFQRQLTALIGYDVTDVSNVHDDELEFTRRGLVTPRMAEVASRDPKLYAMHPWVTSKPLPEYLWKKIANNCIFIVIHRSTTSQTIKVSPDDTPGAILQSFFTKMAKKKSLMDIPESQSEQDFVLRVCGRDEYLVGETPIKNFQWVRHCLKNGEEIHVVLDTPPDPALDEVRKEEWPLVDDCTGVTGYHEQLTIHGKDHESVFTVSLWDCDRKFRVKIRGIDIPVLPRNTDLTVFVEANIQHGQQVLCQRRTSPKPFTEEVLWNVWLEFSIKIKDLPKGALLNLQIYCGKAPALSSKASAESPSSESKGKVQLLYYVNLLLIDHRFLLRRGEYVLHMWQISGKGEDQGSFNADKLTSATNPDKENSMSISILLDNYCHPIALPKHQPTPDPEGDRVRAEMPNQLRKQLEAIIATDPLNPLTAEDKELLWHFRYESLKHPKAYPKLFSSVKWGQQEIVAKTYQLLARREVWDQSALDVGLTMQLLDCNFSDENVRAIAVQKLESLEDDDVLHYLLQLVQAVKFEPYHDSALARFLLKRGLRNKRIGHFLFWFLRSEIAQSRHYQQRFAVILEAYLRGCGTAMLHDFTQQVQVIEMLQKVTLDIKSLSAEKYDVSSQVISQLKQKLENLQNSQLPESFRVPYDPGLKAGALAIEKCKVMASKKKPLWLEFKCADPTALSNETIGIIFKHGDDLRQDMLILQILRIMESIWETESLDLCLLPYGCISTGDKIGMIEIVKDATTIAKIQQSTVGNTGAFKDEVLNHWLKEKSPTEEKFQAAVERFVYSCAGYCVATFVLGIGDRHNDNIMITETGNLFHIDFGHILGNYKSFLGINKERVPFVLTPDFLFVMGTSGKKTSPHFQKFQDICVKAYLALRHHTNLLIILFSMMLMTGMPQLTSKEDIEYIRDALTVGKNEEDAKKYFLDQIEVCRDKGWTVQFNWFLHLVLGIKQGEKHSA
Chain of Phosphatidylinositol 4,5-bisphosphate 3-kinase catalytic subunit alpha isoform (P42336 whole entry, canonical isoform): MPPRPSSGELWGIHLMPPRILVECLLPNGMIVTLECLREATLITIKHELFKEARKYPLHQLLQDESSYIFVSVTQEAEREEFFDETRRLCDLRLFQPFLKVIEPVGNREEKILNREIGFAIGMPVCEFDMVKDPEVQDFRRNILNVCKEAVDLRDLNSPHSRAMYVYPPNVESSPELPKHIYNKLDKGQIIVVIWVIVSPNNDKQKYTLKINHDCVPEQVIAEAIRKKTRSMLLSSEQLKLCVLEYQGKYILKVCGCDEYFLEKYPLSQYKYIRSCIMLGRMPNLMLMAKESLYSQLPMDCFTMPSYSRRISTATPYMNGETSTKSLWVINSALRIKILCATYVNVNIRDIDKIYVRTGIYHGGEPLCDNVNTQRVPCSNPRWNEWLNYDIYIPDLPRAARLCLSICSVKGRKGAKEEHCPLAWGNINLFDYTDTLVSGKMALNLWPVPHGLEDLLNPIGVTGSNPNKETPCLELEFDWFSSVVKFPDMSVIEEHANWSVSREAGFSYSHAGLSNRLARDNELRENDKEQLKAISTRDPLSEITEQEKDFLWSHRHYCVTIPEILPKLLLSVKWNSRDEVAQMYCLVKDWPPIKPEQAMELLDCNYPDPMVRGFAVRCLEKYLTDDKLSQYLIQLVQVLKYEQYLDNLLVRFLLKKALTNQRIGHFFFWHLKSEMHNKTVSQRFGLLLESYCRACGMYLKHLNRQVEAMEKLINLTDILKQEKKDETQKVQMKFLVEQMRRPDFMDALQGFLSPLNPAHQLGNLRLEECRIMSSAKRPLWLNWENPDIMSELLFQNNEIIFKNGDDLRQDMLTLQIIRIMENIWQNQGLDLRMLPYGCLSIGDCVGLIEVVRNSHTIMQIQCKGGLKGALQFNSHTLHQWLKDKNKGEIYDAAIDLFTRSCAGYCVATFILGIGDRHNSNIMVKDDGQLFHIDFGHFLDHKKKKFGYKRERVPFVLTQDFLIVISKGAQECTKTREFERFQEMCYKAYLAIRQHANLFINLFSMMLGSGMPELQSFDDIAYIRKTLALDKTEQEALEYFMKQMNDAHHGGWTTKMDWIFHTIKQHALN

IC50 [1] [µM]	IC50 [2] [µM]	IC50 [3] [µM]	IC50 [4] [µM]	SMILES
> 10	> 10	> 10	> 10	Cc1c(-c2ccc3ncc(N4CC(N5CCOCC5)C4)nc3c2)ccc2oc(N)nc12 [US11547697, Compound 362]
> 10	> 10	> 10	> 10	C[C@H]1CN(c2cnc3scc(-c4ccc5oc(N)nc5c4)c3c2)CCN1 [US11547697, Compound 399]
> 10	> 10	> 10	> 10	Nc1nsc2ccc(-c3ccc4nccc(-c5ccncc5)c4c3)cc12 [US11547697, Compound 12]
> 10	> 10	–	–	Nc1cn2cc(-c3ccc4nc(N)oc4c3)ccc2n1 [US11547697, Compound 247]
> 10	> 10	> 10	> 10	Cc1nc2ccc(-c3ccc4oc(N)nc4c3)cn2c1C(=O)N1CCN(C)CC1 [US11547697, Compound 91]
> 10	> 10	> 10	> 10	C[C@H]1CN(c2cnc3ccc(-c4cccc5nc(N)oc45)cc3n2)CCN1 [US11547697, Compound 310]
> 10	> 10	> 10	> 10	Nc1nc2cc(-c3cn4c(C(=O)N5CCOCC5)cnc4cn3)ccc2o1 [US11547697, Compound 122]
> 10	> 10	> 10	> 10	CNS(=O)(=O)c1cc(-c2ccc3ncc(C(=O)N4CCOCC4)n3c2)ccc1OC [US11547697, Compound 445]
> 10	> 10	> 10	> 10	O=C(c1cnc2ccc(-c3ccc4c(Nc5ccccc5)noc4c3)cn12)N1CCOCC1 [US11547697, Compound 509]
> 10	> 10	> 10	> 10	Nc1nc2ccc(-c3ccc4nc(N)oc4c3)cc2o1 [US11547697, Compound 246]
> 10	> 10	> 10	> 10	CC(C)N1CCC(n2cnc3ccc(-c4cncc(NS(C)(=O)=O)c4)cc3c2=O)CC1 [US11547697, Compound 520]
> 10	> 10	> 10	> 10	Nc1n[nH]c2cc(-c3ccc4ncc(C(=O)N5CCOCC5)n4c3)ccc12 [US11547697, Compound 487]
> 10	> 10	> 10	> 10	COc1ccc(-c2ccc3ncc(C(=O)N4CCOCC4)n3c2)cc1NS(C)(=O)=O [US11547697, Compound 456]
> 10	> 10	> 10	> 10	Nc1nc2cc(-c3nc4cc(-c5cccnc5)cnc4s3)ccc2o1 [US11547697, Compound 402]
> 10	> 10	> 10	> 10	CC(=O)Nc1nc2ccc(-c3nc(N4CCOCC4)c4sc(CN5CCN(S(C)(=O)=O)CC5)cc4n3)cc2s1 [US11547697, Compound 130]
> 10	> 10	> 10	> 10	Nc1n[nH]c2c(-c3ccc4ncc(C(=O)N5CCOCC5)n4c3)cccc12 [US11547697, Compound 490]
> 10	> 10	> 10	> 10	Cc1nc2ccc(-c3ccc4oc(N)nc4c3)cn2c1C(=O)N1CCOCC1 [US11547697, Compound 92]
> 10	> 10	> 10	> 10	CN1CCC(Nc2nc3cc(-c4ccc5ncc(C(=O)N6CCOCC6)n5c4)ccc3o2)CC1 [US11547697, Compound 408]
> 10	> 10	–	> 10	CC(=O)Nc1nc2cc(-c3ccc4oc(N)nc4c3)ccc2s1 [US11547697, Compound 250]
> 10	–	> 10	> 10	Cc1c(-c2ccc3oc(N)nc3c2)ccc2ncc(N3CC(N4CCOCC4)C3)nc12 [US11547697, Compound 383]
> 10	–	> 10	> 10	Nc1nc2cc(-c3cc(F)c4ncc(C(=O)N5CCOCC5)n4c3)ccc2o1 [US11547697, Compound 438]

IC50 [1] [µM]	IC50 [2] [µM]	IC50 [3] [µM]	IC50 [4] [µM]	SMILES
> 10	–	> 10	> 10	NC(=O)[C@@H]1CCCN1c1cnc2ccc(-c3ccc4oc(N)nc4c3)cc2n1 [US11547697, Compound 257]
> 10	> 10	> 10	–	C[C@H]1CN(c2cnc3cccc(-c4ccc5nc(N)oc5c4)c3n2)CCN1 [US11547697, Compound 343]
> 10	–	> 10	> 10	CN(C)CCn1cnc2ccc(-c3ccc4oc(N)nc4c3)cc2c1=O [US11547697, Compound 292]
> 10	–	> 10	> 10	CC1CN(C(=O)c2cnc3ccc(-c4ccc5oc(N)nc5c4)cn23)CC(C)N1 (stereo not given) [US11547697, Compound 142]
> 10	–	> 10	> 10	CN1CCN(CCn2cnc3ccc(-c4ccc5oc(N)nc5c4)cc3c2=O)CC1 [US11547697, Compound 280]
> 10	–	> 10	> 10	CC1(C)COCCN1C(=O)c1cnc2ccc(-c3ccc4oc(N)nc4c3)cn12 [US11547697, Compound 514]
> 10	> 10	> 10	–	O=C(c1cnc2ccc(-c3ccc4oc(Nc5ccccc5)nc4c3)cn12)N1CCOCC1 [US11547697, Compound 407]
> 10	–	> 10	> 10	CN(C)C1CCN(C(=O)c2cnc3ccc(-c4ccc5oc(N)nc5c4)cn23)CC1 [US11547697, Compound 304]
> 10	–	> 10	> 10	Nc1nc2cc(-c3ccc4ncn(C5CCOCC5)c4c3)ccc2o1 [US11547697, Compound 48]
> 10	–	> 10	> 10	CCN(CC)CCn1cnc2ccc(-c3ccc4oc(N)nc4c3)cc2c1=O [US11547697, Compound 224]
> 10	–	> 10	> 10	O=C(c1cnc2ccc(-c3cnc(Cl)c4[nH]ncc34)cn12)N1CCOCC1 [US11547697, Compound 516]
> 10	–	> 10	> 10	Nc1nc2cc(-c3ccc4ncn(CCCN5CCOCC5)c(=O)c4c3)ccc2o1 [US11547697, Compound 290]
> 10	–	> 10	> 10	Nc1nc2cc(-c3ccc4ncc(N5CCN(CC6CC6)CC5=O)nc4c3)ccc2o1 [US11547697, Compound 393]
> 10	–	> 10	> 10	CN1CCN(C(=O)c2cnc3cnc(-c4ccc5oc(N)nc5c4)cn23)CC1 [US11547697, Compound 123]
> 10	–	> 10	> 10	Nc1nc2nc(-c3ccc4ncc(C(=O)N5CCOCC5)n4c3)ccc2o1 [US11547697, Compound 412]
> 10	–	> 10	> 10	O=C(c1cnc2ccc(-c3ccc4oc(NC5CC5)nc4c3)cn12)N1CCOCC1 [US11547697, Compound 409]
> 10	–	> 10	> 10	CCN1CCN(c2cnc3ccc(-c4ccc5oc(N)nc5c4)cc3n2)C(=O)C1 [US11547697, Compound 391]
> 10	–	> 10	> 10	CS(=O)(=O)Nc1cc(-c2ccc3ncc(C(=O)N4CCOCC4)n3c2)ccc1Cl [US11547697, Compound 460]
> 10	–	> 10	> 10	O=C(c1cnc2ccc(-c3cncc(S(=O)(=O)Nc4ccccc4)c3)cn12)N1CCOCC1 [US11547697, Compound 447]
> 10	–	> 10	> 10	Nc1nc2cc(-c3ccc4ncn(C5CCC5)c(=O)c4c3)ccc2o1 [US11547697, Compound 205]

SMILES	IC50 [1] [µM]	IC50 [2] [µM]	IC50 [3] [µM]	IC50 [4] [µM]
Nc1ncc(-c2ccc3oc(N)nc3c2)cn1 [US11547697, Compound 233]	> 10	> 10	–	> 10
Nc1nc2cc(-c3cccc4[nH]nc(N)c34)ccc2o1 [US11547697, Compound 236]	–	> 10	> 10	> 10
